target: T1, progesterone receptor (Homo sapiens, UniProt P06401); assay: Alkaline phosphatase activity in T47D cells (progestin antagonist mode); format: cell-based; details: in the presence of 1 nM progesterone, 24 h, read-out: T47D Alkaline Phosphatase Activity IC50 (nM) or % inhibition
T1 construct: determining a compound's effect on alkaline phosphatase activity in T47D cells; endogenous in cells; host or cells: T47D cells
T1 sequence (P06401 1-933): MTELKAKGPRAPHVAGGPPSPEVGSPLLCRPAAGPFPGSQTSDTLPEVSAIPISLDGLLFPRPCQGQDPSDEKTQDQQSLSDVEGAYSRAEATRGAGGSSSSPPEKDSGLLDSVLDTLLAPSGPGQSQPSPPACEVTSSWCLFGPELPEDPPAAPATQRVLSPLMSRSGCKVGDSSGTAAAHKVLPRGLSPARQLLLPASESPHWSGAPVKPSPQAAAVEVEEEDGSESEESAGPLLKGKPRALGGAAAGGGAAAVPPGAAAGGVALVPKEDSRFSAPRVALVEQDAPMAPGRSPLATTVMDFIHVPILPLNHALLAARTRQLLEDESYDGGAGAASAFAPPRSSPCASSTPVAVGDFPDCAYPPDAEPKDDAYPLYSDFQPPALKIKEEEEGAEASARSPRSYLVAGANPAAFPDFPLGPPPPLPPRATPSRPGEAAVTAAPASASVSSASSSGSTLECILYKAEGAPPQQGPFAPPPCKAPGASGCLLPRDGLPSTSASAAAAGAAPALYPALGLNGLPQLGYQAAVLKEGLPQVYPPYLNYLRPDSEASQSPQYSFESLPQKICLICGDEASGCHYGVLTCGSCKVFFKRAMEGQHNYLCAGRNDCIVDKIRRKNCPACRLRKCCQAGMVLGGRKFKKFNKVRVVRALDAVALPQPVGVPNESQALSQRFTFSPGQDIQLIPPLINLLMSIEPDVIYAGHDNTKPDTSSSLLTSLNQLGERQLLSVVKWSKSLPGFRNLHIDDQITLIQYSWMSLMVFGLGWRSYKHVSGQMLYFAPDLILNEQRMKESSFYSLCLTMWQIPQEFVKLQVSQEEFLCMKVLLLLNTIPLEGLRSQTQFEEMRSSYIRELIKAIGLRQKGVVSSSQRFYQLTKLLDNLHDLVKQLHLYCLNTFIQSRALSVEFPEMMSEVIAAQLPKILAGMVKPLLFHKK
Experimental: (1) Effects of Progestins and Antiprogestins on Alkaline Phosphatase Activity in T47D Cells
PURPOSE: To identify progestins or antiprogestins by determining a compound's effect on alkaline phosphatase activity in T47D cells.
Culture medium: • DMEM:F12 (1:1) (GIBCO, BRL) supplemented with 5% (v/v) charcoal stripped fetal bovine serum (not heat-inactivated), 100 U/mL penicillin, 100 μg/mL streptomycin, and 2 mM the GlutaMax™ reagent (GIBCO, BRL).
Alkaline phosphatase assay buffer: • I. 0.1M Tris-HCl, pH 9.8, containing 0.2% the Triton® X-100 reagent • II. 0.1M Tris-HCl, pH 9.8, containing 4 mM p-nitrophenyl phosphate (Sigma). B. Cell Culture and Treatment:
Frozen T47D cells were thawed in a 37° C. water bath and diluted to 280,000 cells/mL in culture medium. To each well in a 96-well plate (Falcon, Becton Dickinson Labware), 180 μL of diluted cell suspension was added.
Twenty μL of reference or test compounds diluted in the culture medium was then added to each well. When testing for progestin antagonist activity, reference antiprogestins or test compounds were added in the presence of 1 nM progesterone. The cells were incubated at 37° C. in a 5% CO2/humidified atmosphere for 24 h.
NOTE: For high throughput screening, one concentration of each compound was tested at 0.3 μg/mL. Based on an average molecular weight of 300 g/mol for the compounds in the library, the concentration was approximately 1 μM. Subsequently, active compounds were tested in dose response assays to determine EC50 and IC50. C. Alkaline Phosphatase Enzyme Assay:
At the end of treatment, the medium was removed from the plate. Fifty μL of assay buffer I was added to each well. The plates were shaken in a titer plate shaker for 15 min. Then 150 μL of assay buffer II was added to each well. Optical density measurements were taken at 5 min intervals for 30 min at a test wavelength of 405 nm.
For reference and test compounds, a dose response curve was generated for dose (X-axis) vs. the rate of enzyme reaction (slope) (Y-axis). Square root-transformed data was used for analysis of variance and nonlinear dose response curve fitting for both agonist and antagonist modes. Huber weighting was used to down-weight the effects of outliers. EC50 or IC50 values were calculated from the retransformed values. JMP software (SAS Institute, Inc.) was used for both one-way analysis of variance and non-linear dose response analysis in both single dose and dose response studies.
Progesterone and trimegestone were reference progestins and RU486 was the reference antiprogestin. All reference compounds were run in full dose response curves and the EC50 and IC50 values were calculated.

IC50 [nM] | SMILES
1070 | O=C1NCCN1c1nc(-c2ccc(Br)cc2)cs1 [Example 4, 1-[4-(4-Bromophenyl)-1,3-thiazol-2-yl]imidazolidin-2-one]
733 | CN1CCN(c2nc(-c3ccc(Br)cc3)cs2)C1=O [Example 5, 1-[4-(4-Bromophenyl)-1,3-thiazol-2-yl]-3-methylimidazolidin-2-one]
35.4 | CN1CC(C)(C)N(c2nc(-c3ccc(C#N)cc3)cs2)C1=O [Example 8, 4-[2-(3,5,5-Trimethyl-2-oxoimidazolidin-1-yl)-1,3-thiazol-4-yl]benzonitrile]
77.9 | CC1(C)CN(Cc2ccccc2)C(=O)N1c1nc(-c2ccc(C#N)cc2)cs1 [Example 9, 4-[2-(3-Benzyl-5,5-dimethyl-2-oxoimidazolidin-1-yl)-1,3-thiazol-4-yl]benzonitrile]

test system: not given; assay: not given; details: not given

melting point [°C] | SMILES
197 to 199 | C[C@@H]1COC(=O)N1c1nc(-c2ccc(Br)cc2)cs1 [Example 1, (4R)-3-[4-(4-Bromophenyl)-1,3-thiazol-2-yl]-4-methyl-1,3-oxazolidin-2-one]
145 to 147 | CCC1(CC)COC(=O)N1c1nc(-c2ccc(C#N)cc2)cs1 [Example 2, 4-[2-(4,4-Diethyl-2-oxo-1,3-oxazolidin-3-yl)-1,3-thiazol-4-yl]benzonitrile]
181 to 183 | CC1(C)COC(=O)N1c1nc(-c2cccc(C#N)c2)cs1 [Example 3, 3-[2-(4,4-dimethyl-2-oxo-1,3-oxazolidin-3-yl)-1,3-thiazol-4-yl]benzonitrile]
230 to 233 | O=C1NCCN1c1nc(-c2ccc(Br)cc2)cs1 [Example 4, 1-[4-(4-Bromophenyl)-1,3-thiazol-2-yl]imidazolidin-2-one]

From patent US7652018B2, “Imidazolidin-2-one derivatives useful as PR modulators” (Wyeth LLC, priority 2006, dated 2010)
